Data taken from patent US8138175B2, “Heterocyclyl compounds” (Hoffmann-La Roche Inc., priority 2008, dated 2012).

These compounds were tested against T1, human chemokine receptor 2 isoform B (Homo sapiens, UniProt P41597) (assay: Calcium mobilization assay). Settings: Ca mobilization assay for CCR2; CHOK1-CCR2B-A5 cells; antagonist activity against 20 nM MCP-1; FLIPR, Fluo-4.
T1 construct: host or cells: CHOK1-CCR2B-A5 (CHO-K1) cells
T1 sequence (P41597 1-360 isoform P41597-2): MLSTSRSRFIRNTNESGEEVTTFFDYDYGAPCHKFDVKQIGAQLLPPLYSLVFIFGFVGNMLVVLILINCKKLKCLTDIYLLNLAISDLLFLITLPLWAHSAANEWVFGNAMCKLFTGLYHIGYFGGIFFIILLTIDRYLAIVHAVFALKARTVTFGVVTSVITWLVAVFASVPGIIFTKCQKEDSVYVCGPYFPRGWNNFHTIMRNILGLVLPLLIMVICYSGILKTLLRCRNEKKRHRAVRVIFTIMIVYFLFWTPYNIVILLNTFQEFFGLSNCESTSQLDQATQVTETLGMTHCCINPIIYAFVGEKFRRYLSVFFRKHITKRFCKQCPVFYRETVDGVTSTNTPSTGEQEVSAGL
Type: cell-based
Method: Calcium Mobilization Assay
CHOK1-CCR2B-A5 cells (from Euroscreen) stably overexpressing the human chemokine receptor 2 isoform B were cultured in Nutrient Hams F12 medium supplemented with 5% FBS, 100 U/ml penicillin, 100 μg/ml streptomycin, 400 μg/ml G418 and 5 μg/ml puromycin.
For the assay cells were grown overnight in 384-well black clear flat bottom polystyrene plates (Costar) at 37° C. at 5% CO2. After washing with DMEM, 20 mM Hepes, 2.5 mM probenecid, 0.1% BSA (DMEM assay buffer) cells were loaded with 4 μM Fluo-4 in the same DMEM assay buffer for 2 hours at 30° C. Excess dye was removed and cells were washed with DMEM assay buffer. 384-well compound plates were prepared with DMEM assay buffer/0.5% dimethyl sulfoxide with or without various concentrations of test compounds. Usually compounds were tested for agonist and antagonist activity.
Test compounds were added to the assay plate and agonist activity was monitored as fluorescence for 80 seconds with a FLIPR (488 nm excitation; 510-570 nm emission; Molecular Devices). After 20-30 min. of incubation at 30° C., 20 nM MCP-1 (R&D; Roche) was added and fluorescence was monitored again for 80 seconds. Increases in intracellular calcium are reported as maximum fluorescence after agonist exposure minus basal fluorescence before exposure. Antagonist activity is indicated as inhibitor concentration required for 50% inhibition of specific calcium increases.

IC50 [nM]	SMILES
16	COC(=O)[C@H](CCN1CCC2(CC2)[C@H](O)C1)N1C[C@@H](C)N(c2ccc(Cl)c(Cl)c2)CCC1=O [Example 65, (S)-2-[(R)-4-(3,4-dichloro-phenyl)-3-methyl-7-oxo-[1,4]diazepan-1-yl]-4-((S)-4-hydroxy-6-aza-spiro[2.5]oct-6-yl)-butyric acid methyl ester]
546	COC(=O)[C@H](CCN1CCC2(CC2)[C@H](O)C1)N1C[C@H](C)N(c2ccc(Cl)c(Cl)c2)CCC1=O [Example 66, (S)-2-[(S)-4-(3,4-dichloro-phenyl)-3-methyl-7-oxo-[1,4]diazepan-1-yl]-4-((S)-4-hydroxy-6-aza-spiro[2.5]oct-6-yl)-butyric acid methyl ester]
226	CC1C(=O)N(CCCN2CCCCC2)CCN1c1ccc(Cl)c(Cl)c1 (stereo not shown) [Example 71, 4-(3,4-Dichloro-phenyl)-3-methyl-1-(3-piperidin-1-yl-propyl)-piperazin-2-one]
306	C[C@H]1C(=O)N(CCCN2CCCCC2)CCN1c1ccc(Cl)c(Cl)c1 [Example 72, (S)-4-(3,4-Dichloro-phenyl)-3-methyl-1-(3-piperidin-1-yl-propyl)-piperazin-2-one]
5	C[C@H]1C(=O)N(CCCN2CCC3(CC3)[C@H](O)C2)CCN1c1ccc(Cl)c(Cl)c1 [Example 74, (S)-4-(3,4-Dichloro-phenyl)-1-[3-((S)-4-hydroxy-6-aza-spiro[2.5]oct-6-yl)-propyl]-3-methyl-piperazin-2-one]
7	C[C@H]1C(=O)N(CCCN2CCC3(CC3)[C@H](O)C2)CCN1c1ccc(Cl)c(C(F)(F)F)c1 [Example 76, (S)-4-(4-Chloro-3-trifluoromethyl-phenyl)-1-[3-((S)-4-hydroxy-6-aza-spiro[2.5]oct-6-yl)-propyl]-3-methyl-piperazin-2-one]
13	C[C@H]1C(=O)N(CCCN2CCC3(CC3)[C@H](O)C2)CCN1c1ccc(F)c(C(F)(F)F)c1 [Example 78, (S)-4-(4-Fluoro-3-trifluoromethyl-phenyl)-1-[3-((S)-4-hydroxy-6-aza-spiro[2.5]oct-6-yl)-propyl]-3-methyl-piperazin-2-one]
29	C[C@H]1C(=O)N(CCCN2CCC3(CC3)[C@H](O)C2)CCN1c1ccc(F)c(Cl)c1 [Example 79, (S)-4-(3-Chloro-4-fluoro-phenyl)-1-[3-((S)-4-hydroxy-6-aza-spiro[2.5]oct-6-yl)-propyl]-3-methyl-piperazin-2-one]
318	C[C@H]1C(=O)N(CCCN2CCC3(CC3)[C@H](O)C2)CCN1c1ccc(-c2ccccc2)cc1 [Example 80, (S)-4-Biphenyl-4-yl-1-[3-((S)-4-hydroxy-6-aza-spiro[2.5]oct-6-yl)-propyl]-3-methyl-piperazin-2-one]
73	C[C@H]1C(=O)N(CCCN2CCC3(CC3)[C@H](O)C2)CCN1c1ccc2ccccc2c1 [Example 82, (S)-1-[3-((S)-4-Hydroxy-6-aza-spiro[2.5]oct-6-yl)-propyl]-3-methyl-4-naphthalen-2-yl-piperazin-2-one]
2	C[C@H]1C(=O)N(CCCN2CCC3(CC3)[C@H](O)C2)CCN1c1ccc(C(F)(F)F)c(Cl)c1 [Example 83, (S)-4-(3-Chloro-4-trifluoromethyl-phenyl)-1-[3-((S)-4-hydroxy-6-aza-spiro[2.5]oct-6-yl)-propyl]-3-methyl-piperazin-2-one]
15	C[C@H]1C(=O)N(CCCN2CCC3(CC3)[C@H](O)C2)CCN1c1ccc(Cl)c(OC(F)(F)F)c1 [Example 84, (S)-4-(4-Chloro-3-trifluoromethoxy-phenyl)-1-[3-((S)-4-hydroxy-6-aza-spiro[2.5]oct-6-yl)-propyl]-3-methyl-piperazin-2-one]

SMILES	IC50 [nM]
CC1C(=O)N(CCCN2CCCCC2)CCN1c1ccc(Cl)c(C(F)(F)F)c1 (stereo not shown) [Example 70, 4-(4-Chloro-3-trifluoromethyl-phenyl)-3-methyl-1-(3-piperidin-1-yl-propyl)-piperazin-2-one]	579
